pIC50: −log10 of the molar value. Where two headings read alike, the source gives them in different places.
Key:
[1] = system: 80S14 (p21-deficient) cells; assay: Cytotoxicity assay using isogenic cell lines: IC50 in 80S14 (p21-deficient) cells, SRB; format: cell-based, human; details: for pIC50: SRB; for IC50: 80S14, 120 h
How it was run: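 80S14 (p21-deficient) cells seeded at 12,000 cells/well overnight, then exposed 5 days at 37 °C to serial dilutions (5 pM–50 μM or 170 pg/ml–10 μg/ml). TCA-fixed, sulforhodamine B-stained, absorbance at 560 nm; IC50 taken from cytotoxicity curves versus untreated controls.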

LoVo Colon cell line = assay: Cytotoxicity assay using LoVo colon cell line, SRB; format: cell-based; details: read-out: Inhibition of LoVo
How it was run: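 LoVo cells (4000/well, RPMI 1640 with 10% FBS, 37 °C, 7% CO2) seeded overnight, then exposed 4 days to serial dilutions spanning 5 pM-20 μM or 170 pg/ml-10 μg/ml. Survival by SRB staining; IC50 from curves relative to untreated controls.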

[2] = Homo sapiens, 120 h, 80S14 p21-deficient cells, 5 days incubation, read-out: IC50 for 80SI4
[3] = Homo sapiens, 96 h, LoVo colon cells, 4 days incubation, SRB
[4] = Homo sapiens, 120 h, 80S14 (p21-deficient) cells, 5 days, class symbols, read-out: IC50 for 80S14
[5] = Homo sapiens, 96 h, Cellular activity in LoVo cell, 4 days incubation, SRB
[6] = Homo sapiens, read-out: IC50 for 80SI4 (uM)
[7] = Homo sapiens, read-out: IC50 for 80S14 (uM)

Compound	pIC50 [1, 4]	pIC50 (LoVo Colon cell line; [5])	also measured
CC(C)(C)CNC(=O)Nc1cccc(-c2ccnc3c(C(=O)c4cccs4)cnn23)c1 [Example 164, N-neopentyl-N′-{3-[3-(thien-2-ylcarbonyl)pyrazolo[1,5-a]pyrimidin-7-yl]phenyl}urea]			pIC50 [1, 2]: > 6.00; pIC50 (LoVo Colon cell line; [3]): > 7.00
CC(C)CC(=O)Nc1cccc(-c2ccnc3c(-c4cccc(-c5ccccc5)c4)cnn23)c1 [Example 485, N-{3-[3-(1,1′-Biphenyl-3-yl)pyrazolo[1,5-a]pyrimidin-7-yl]phenyl}-3-methylbutanamide]	4.30 to 5.00	4.70 to 6.00	
CC(=O)c1cccc(-c2cnn3c(-c4cccc(NC(=O)CC(C)C)c4)ccnc23)c1 [Example 483, N-{3-[3-(3-Acetylphenyl)pyrazolo[1,5-a]pyrimidin-7-yl]phenyl}-3-methylbutanamide]	4.30 to 5.00	4.70 to 6.00	
CN(C)c1ccc(-c2cccc(-c3ccnc4c(C(=O)c5cccs5)cnn34)c2)cc1 [Example 450, {7-[4′-(Dimethylamino)-1,1′-biphenyl-3-yl]pyrazolo[1,5-a]pyrimidin-3-yl}(thien-2-yl)methanone]	> 6.00	> 7.00	
CN(C)c1cccc(-c2cccc(-c3ccnc4c(C(=O)c5cccs5)cnn34)c2)c1 [Example 453, {7-[3′-(Dimethylamino)-1,1′-biphenyl-3-yl]pyrazolo[1,5-a]pyrimidin-3-yl}(thien-2-yl)methanone]	5.00 to 6.00	6.00 to 7.00	
CCCNc1cccc(-c2ccnc3c(C(=O)c4cccs4)cnn23)c1 [Example 267, [7-[3-(Propylamino)phenyl]pyrazolo[1,5-a]pyrimidin-3-yl]-2-thienyl-methanone]	5.00 to 6.00	6.00 to 7.00	
O=C(CC1CC2CCC1C2)Nc1cccc(-c2ccnc3c(C(=O)c4cccs4)cnn23)c1 (stereo not shown) [Example 76, 2-bicyclo[2.2.1]hept-2-yl-N-{3-[3-(thien-2-ylcarbonyl)pyrazolo[1,5-a]pyrimidin-7-yl]phenyl}acetamide]			pIC50 [1, 2]: > 6.00; pIC50 (LoVo Colon cell line; [3]): > 7.00
O=C(c1cccs1)c1cnn2c(-c3cccc(NC(=O)N4CCCC4)c3)ccnc12 [Example 170, N-{3-[3-(thien-2-ylcarbonyl)pyrazolo[1,5-a]pyrimidin-7-yl]phenyl}pyrrolidine-1-carboxamide]			pIC50 [1, 2]: 5.00 to 6.00; pIC50 (LoVo Colon cell line; [3]): 6.00 to 7.00
CC(C)CCC(=O)Nc1cccc(-c2ccnc3c(C(=O)c4cccs4)cnn23)c1 [Example 56, 4-methyl-N-{3-[3-(thien-2-ylcarbonyl)pyrazolo[1,5-a]pyrimidin-7-yl]phenyl}pentanamide]			IC50 [1, 6]: < 1 µM; pIC50 (LoVo Colon cell line; Homo sapiens, LoVo, 96 h): > 7.00
Nc1ccc(-c2ccnc3c(C(=O)c4cccs4)cnn23)s1 [Example 345, [7-(5-Aminothien-2-yl)pyrazolo[1,5-a]pyrimidin-3-yl](thien-2-yl)methanone]	4.30 to 5.00	4.70 to 6.00	
O=C(Nc1cccc(-c2ccnc3c(C(=O)c4cccs4)cnn23)c1)OC1C=CCCC1 (stereo not shown) [Example 173, cyclohex-2-en-1-yl 3-[3-(thien-2-ylcarbonyl)pyrazolo[1,5-a]pyrimidin-7-yl]phenylcarbamate]			pIC50 [1, 2]: > 6.00; pIC50 (LoVo Colon cell line; [3]): > 7.00
CCOC(=O)Nc1cccc(-c2ccnc3c(C(=O)c4cccs4)cnn23)c1 [Example 25, ethyl 3-[3-(thien-2-ylcarbonyl)pyrazolo[1,5-a]pyrimidin-7-yl]phenylcarbamate]			IC50 [1, 6]: < 1 µM; pIC50 (LoVo Colon cell line; Homo sapiens, LoVo, 96 h): > 7.00
CC12CCC(C(=O)Nc3cccc(-c4ccnc5c(C(=O)c6cccs6)cnn45)c3)(OC1=O)C2(C)C (stereo not shown) [Example 54, 4,7,7-trimethyl-3-oxo-N-{3-[3-(thien-2-ylcarbonyl)pyrazolo[1,5-a]pyrimidin-7-yl]phenyl}-2-oxabicyclo[2.2.1]heptane-1-carboxamide]			pIC50 [1, 2]: > 6.00; pIC50 (LoVo Colon cell line; [3]): > 7.00
O=C(Nc1cccc(-c2ccnc3c(C(=O)c4cccs4)cnn23)c1)OCc1cccnc1 [Example 424, Pyridin-3-ylmethyl 3-[3-(thien-2-ylcarbonyl)pyrazolo[1,5-a]pyrimidin-7-yl]phenylcarbamate]	> 6.00	4.70 to 6.00	
C=CCOC(=O)Nc1cccc(-c2cc(C)nc3c(C(=O)c4cccs4)cnn23)c1 [Example 196, allyl 3-[5-methyl-3-(thien-2-ylcarbonyl)pyrazolo[1,5-a]pyrimidin-7-yl]phenylcarbamate]			pIC50 [1, 2]: > 6.00; pIC50 (LoVo Colon cell line; [3]): 6.00 to 7.00
O=C(c1cccs1)c1cnn2c(-c3cccc(-c4ccn(CCN5CCCC5)n4)c3)ccnc12 [Example 520, (7-{3-[1-(2-Pyrrolidin-1-ylethyl)-1H-pyrazol-3-yl]phenyl}pyrazolo[1,5-a]pyrimidin-3-yl)(thien-2-yl)methanone]	5.00 to 6.00	6.00 to 7.00	

Compound	pIC50 [1, 4]	pIC50 (LoVo Colon cell line; [5])	also measured
C=C(C)CNc1cccc(-c2ccnc3c(C(=O)c4cccs4)cnn23)c1 [Example 434, (7-{3-[(2-Methylprop-2-enyl)amino]phenyl}pyrazolo[1,5-a]pyrimidin-3-yl)(thien-2-yl)methanone]	5.00 to 6.00	6.00 to 7.00	
O=C(c1cccs1)c1cnn2c(-c3cccc(NCc4ccccc4)c3)ccnc12 [Example 349, {7-[3-(Benzylamino)phenyl]pyrazolo[1,5-a]pyrimidin-3-yl}(thien-2-yl)methanone]	5.00 to 6.00	6.00 to 7.00	
O=C(c1cccs1)c1cnn2c(-c3cccc(NC(=O)C4CCCCC4)c3)ccnc12 [Example 282, N-{3-[3-(2-Thienylcarbonyl)pyrazolo[1,5-a]pyrimidin-7-yl]phenyl}cyclohexanecarboxamide]	> 6.00	6.00 to 7.00	
CC(CNc1cccc(-c2ccnc3c(C(=O)c4cccs4)cnn23)c1)c1ccccc1 (stereo not shown) [Example 378, (7-{3-[(2-Phenylpropyl)amino]phenyl}pyrazolo[1,5-a]pyrimidin-3-yl)(thien-2-yl)methanone]	5.00 to 6.00	4.70 to 6.00	
O=C(Nc1cc(-c2ccnc3c(C(=O)c4cccs4)cnn23)ccc1F)OCCCl [Example 381, 2-Chloroethyl 2-fluoro-5-[3-(thien-2-ylcarbonyl)pyrazolo[1,5-a]pyrimidin-7-yl]phenylcarbamate]			IC50 [1, 7]: < 1 µM; pIC50 (LoVo Colon cell line; Homo sapiens, LoVo, 96 h): > 7.00
O=C(Nc1ccc(Cl)c(-c2ccnc3c(C(=O)c4cccs4)cnn23)c1)c1ccccc1 [Example 341, N-{4-Chloro-3-[3-(thien-2-ylcarbonyl)pyrazolo[1,5-a]pyrimidin-7-yl]phenyl}benzamide]	5.00 to 6.00	6.00 to 7.00	
O=C(CCCN1CCOCC1)Nc1cccc(-c2ccnc3c(C(=O)c4cccs4)cnn23)c1 [Example 423, 4-Morpholin-4-yl-N-{3-[3-(thien-2-ylcarbonyl)pyrazolo[1,5-a]pyrimidin-7-yl]phenyl}butanamide]	5.00 to 6.00	6.00 to 7.00	
O=C(CC1CCCCC1)Nc1cccc(-c2ccnc3c(C(=O)c4cccs4)cnn23)c1 [Example 74, 2-cyclohexyl-N-{3-[3-(thien-2-ylcarbonyl)pyrazolo[1,5-a]pyrimidin-7-yl]phenyl}acetamide]			pIC50 [1, 2]: > 6.00; pIC50 (LoVo Colon cell line; [3]): > 7.00
O=C(Nc1cccc(-c2ccnc3c(C(=O)c4cccs4)cnn23)c1)OCC1CCC1 [Example 174, cyclobutylmethyl 3-[3-(thien-2-ylcarbonyl)pyrazolo[1,5-a]pyrimidin-7-yl]phenylcarbamate]			pIC50 [1, 2]: > 6.00; pIC50 (LoVo Colon cell line; [3]): > 7.00
N-{3-[6-methyl-3-(thien-2-ylcarbonyl)pyrazolo[1,5-a]pyrimidin-7-yl]phenyl}cycopropanecarboxamide [Example 217]			pIC50 ([1]; 80S14 p21-deficient cells, 5 days incubation, read-out: IC50 for 80SI4): 4.30 to 5.00; pIC50 (LoVo Colon cell line; LoVo colon cells, 4 days incubation, SRB): > 7.00
Cc1ccc(-c2ccnc3c(C(=O)c4cccs4)cnn23)cc1NC(=O)OC(C)C [Example 314, Isopropyl 2-methyl-5-[3-(2-thienylcarbonyl)pyrazolo[1,5-a]pyrimidin-7-yl]phenylcarbamate]			IC50 [1, 7]: < 1 µM; pIC50 (LoVo Colon cell line; Homo sapiens, LoVo, 96 h): > 7.00
CC/C=C/CNc1cccc(-c2ccnc3c(C(=O)c4cccs4)cnn23)c1 [Example 432, (7-{3-[(2E)-Pent-2-enylamino]phenyl}pyrazolo[1,5-a]pyrimidin-3-yl)(thien-2-yl)methanone]	> 6.00	> 7.00	
O=C(c1nccs1)c1cnn2c(-c3cccc(NC(=O)C4CC4)c3)ccnc12 [Example 338, N-{3-[3-(1,3-Thiazol-2-ylcarbonyl)pyrazolo[1,5-a]pyrimidin-7-yl]phenyl}cyclopropanecarboxamide]	5.00 to 6.00	6.00 to 7.00	
O=C(c1cccs1)c1cnn2c(-c3cccc(NCCc4ccccc4)c3)ccnc12 [Example 362, (7-{3-[(2-Phenylethyl)amino]phenyl}pyrazolo[1,5-a]pyrimidin-3-yl)(thien-2-yl)methanone]	4.30 to 5.00	4.70 to 6.00	
C=CCCOC(=O)Nc1cccc(-c2cc(C)nc3c(C(=O)c4cccs4)cnn23)c1 [Example 199, but-3-enyl 3-[5-methyl-3-(thien-2-ylcarbonyl)pyrazolo[1,5-a]pyrimidin-7-yl]phenylcarbamate]			pIC50 [1, 2]: > 6.00; pIC50 (LoVo Colon cell line; [3]): > 7.00
CC(CC(=O)O)CC(=O)Nc1cccc(-c2ccnc3c(C(=O)c4cccs4)cnn23)c1 (stereo not shown) [Example 445, 3-Methyl-5-oxo-5-({3-[3-(thien-2-ylcarbonyl)pyrazolo[1,5-a]pyrimidin-7-yl]phenyl}amino)pentanoic acid]	4.30 to 5.00	4.70 to 6.00	

— patent US20060063784A1, “Method of using substituted pyrazolo [1,5-a] pyrimidines” (priority 2004, published 2006)
